# Data reported in US11807693B2 (priority 2014, dated 2023).
# Starred links: 1 amine or outer side, 2 acyl side, 3 side chain; linkers in the order of their positions; H or OH if unused. Non-standard residues stand in square brackets, D forms with d. Residues, ends and D or L forms follow the SMILES beside them. ξ: configuration not given here. *: point of attachment. dBip = N[C@H](Cc1ccc(-c2ccccc2)cc1)C(=O)O; Oic = O=C(O)[C@@H]1C[C@@H]2CCCC[C@@H]2N1; Phe(4-Cl) = N[C@@H](Cc1ccc(Cl)cc1)C(=O)O; Phe(4-I) = N[C@@H](Cc1ccc(I)cc1)C(=O)O; γGlu = O=C(O)[C@H](CCC(=O)[*:2])N[*:1]; NMeR = CN[C@@H](CCCNC(=N)N)C(=O)O; Tridecanoyl = CCCCCCCCCCCCC(=O)*; hArg = N=C(N)NCCCC[C@H](N)C(=O)O; Cha = N[C@@H](CC1CCCCC1)C(=O)O; NMeL = CN[C@@H](CC(C)C)C(=O)O; ξαMeL = CC(C)CC(C)(N)C(=O)O; Nle = CCCC[C@H](N)C(=O)O; ξβ3hV = CC(C)C(N)CC(=O)O; 3TP = not defined here; AEEA = NCCOCCOCC(=O)O; Aib = CC(C)(N)C(=O)O
# How the values were obtained:
# [1] = rat plasma; settings: 37° C., up to 4 hr
# [2] = molecular target: T1, rat APJ receptor (Rattus norvegicus, UniProt Q9JHG3); assay: [35S] GTPγS assay, rat APJ receptor; assay type: biochemical; settings: rat APJ receptor, read-out: EC50 Rat APJ Receptor
# T1 construct: expressed in transfected cells
# T1 sequence (Q9JHG3 1-377): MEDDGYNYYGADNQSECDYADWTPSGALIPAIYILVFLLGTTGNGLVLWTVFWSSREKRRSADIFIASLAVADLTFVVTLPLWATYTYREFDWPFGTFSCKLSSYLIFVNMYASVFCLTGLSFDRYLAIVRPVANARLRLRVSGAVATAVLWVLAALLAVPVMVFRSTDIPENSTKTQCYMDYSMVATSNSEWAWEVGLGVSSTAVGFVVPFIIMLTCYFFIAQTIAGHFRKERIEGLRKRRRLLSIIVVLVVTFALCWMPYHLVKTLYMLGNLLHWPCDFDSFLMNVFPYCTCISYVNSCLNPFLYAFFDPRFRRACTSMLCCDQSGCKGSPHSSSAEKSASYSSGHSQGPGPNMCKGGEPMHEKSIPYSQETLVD
# Experimental: The membranes were incubated with modified peptides in the assay buffer. […] Bound [^35S] GTPγS was separated from free radiolabel by filtration. The filter bound radioactivity was determined by liquid scintillation counting.
# [3] = In vitro stability in rat liver homogenate; assay type: in vitro ADME; settings: tissue homogenate
# How it was run: (§1)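 Peptide remaining was followed by high-resolution LC-MS of methanol-quenched, centrifuged samples with internal standard. Incubations were at 37° C. over 4 hr, peptides at 5 μM final in rat plasma or in rat liver or kidney homogenate.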
# [4] = In vitro stability in rat kidney homogenate; assay type: in vitro ADME; settings: rat, tissue homogenate
# How it was run: as §1
# [5] = In vitro stability in rat plasma; assay type: in vitro ADME
# How it was run: as §1
# [6] = molecular target: T2, human APJ receptor (Homo sapiens, UniProt P35414); assay: [35S] GTPγS assay, human APJ receptor; assay type: biochemical
# T2 construct: expressed in transfected cells
# T2 sequence (P35414 1-380): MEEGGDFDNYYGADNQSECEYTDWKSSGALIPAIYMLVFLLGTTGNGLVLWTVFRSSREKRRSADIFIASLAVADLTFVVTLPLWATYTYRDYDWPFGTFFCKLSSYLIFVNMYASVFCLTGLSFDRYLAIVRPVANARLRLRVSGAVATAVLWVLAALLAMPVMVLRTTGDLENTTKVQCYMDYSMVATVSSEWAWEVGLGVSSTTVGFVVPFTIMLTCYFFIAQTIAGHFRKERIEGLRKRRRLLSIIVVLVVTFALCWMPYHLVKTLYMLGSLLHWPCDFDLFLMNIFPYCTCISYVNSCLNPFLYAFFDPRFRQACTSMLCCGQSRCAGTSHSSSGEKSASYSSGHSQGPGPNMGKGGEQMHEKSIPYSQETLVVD
# [7] = In vivo pharmacokinetics in rat; design: species or system Sprague-Dawley rats; settings: 20 kDa PEGylated peptides, FIG. 9, 1/10th the dose of the others
# Experimental: Evaluation of the in vivo pharmacokinetic profile of several pegylated and lipidated apelin polypeptides in rat was undertaken (FIGS. 9 and 10A-B). The apelin polypeptides were administered to Sprague-Dawley rats through subcutaneous (SC) administration and the pharmacokinetic profile for each polypeptide was subsequently evaluated. […] Blood samples collected over a 24 hr period were transferred into collection tubes containing potassium EDTA and stored on ice until processed. Plasma was obtained from blood by centrifugation. After transfer into a 96-well container, plasma samples were stored in a freezer maintained at approximately −80° C. Quantitative analysis of the apelin polypeptide in rat plasma samples was achieved using multiple reaction monitor (MRM) mode on a LC-MS/MS system.
Compound,not cleaved [1],"remaining at 4 h, 5 μM [3]","remaining at 4 h, 5 μM [4]","remaining at 4 h, 5 μM [5]",other results
{Palm} [AC4Abu] [Aeea] [Aeea] q R P [NMeArg] [Cha] S H K G [Oic] [Nle] [aMePro] [D-BhPhe] {COOH},>90.0 % remaining at 4 hours,–,–,–,–
CCCCCCCCCCCCC(=O)N[C@@H](CCC(=O)NCCOCCOCC(=O)NCCOCCOCC(=O)NC(CC(=O)N[C@@H](CCCNC(=N)N)C(=O)N1CCC[C@H]1C(=O)N(C)[C@@H](CCCNC(=N)N)C(=O)NC(C)(CC(C)C)C(=O)N[C@@H](CO)C(=O)N[C@@H](Cc1c[nH]cn1)C(=O)N[C@@H](CCCCN)C(=O)NCC(=O)N1[C@H](C(=O)N[C@@H](CCCC)C(=O)N2CCC[C@H]2C(=O)N[C@@H](Cc2ccc(Cl)cc2)C(=O)O)C[C@@H]2CCCC[C@@H]21)C(C)C)C(=O)O (stereo partly drawn) [compound 374] ({Tridecanoyl-γGlu-AEEA-AEEA}-[ξβ3hV]RP[NMeR][ξαMeL]SHKG[Oic][Nle]P[Phe(4-Cl)]-OH),–,11%,89%,66%,EC50 [2]: 0.503 nM; EC50 ([6]; human APJ receptor): 0.305 nM
{PDA}[AC4Abu][Aeea][Aeea][hArg]rQ[hArg]Pr[NMeLeu]SHKG[Oic][pI-Phe]P[D-Bip]{COOH},>90.0 % remaining at 4 hours,–,–,–,–
{H2}[3TP](20K-mPEGReg)[hArg]rQ[hArg]Pr[NMeLeu]SHKG[Oic][pI-Phe]P[D-Bip]{COOH} ({20K‑mPEGReg-3TP}-[hArg][dR]Q[hArg]P[dR][NMeL]SHKG[Oic][Phe(4-I)]P[dBip]-OH; reading uncertain) [SEQ ID NO: 103],–,–,–,–,plasma concentration in rat [7]: high plasma concentrations
{Palm} [AC4Abu] [Aeea] [Aeea] q R P [NMeArg] [Cha] S H K G [Oic] [Nle] [Aib] [D-BhPhe] {COOH},>90.0 % remaining at 4 hours,–,–,–,–
{Palm} [AC4Abu] [Aeea] [Aeea] q R P [NMeArg] [Cha] S H K G [Oic] [Nle] [BhPro] [D-BhPhe] {COOH},>90.0 % remaining at 4 hours,–,–,–,–
{hexanoyl} [AC4Abu] [Aeea] [Aeea] Q R P [NMeArg] [Cha] S H K G [Oic] [Nle] [Aib] [4-Cl-F] {COOH},>90.0 % remaining at 4 hours,–,–,–,–
{Palm} [AC4Abu] [Aeea] [Aeea] q [hArg] P r [Cha] S H K G [Oic] [Nle] P [D-BhPhe] {COOH},90 % remaining at 4 hours,–,–,–,–
CCCCCCCCCCCCC(=O)N[C@@H](CCC(=O)NCCOCCOCC(=O)NCCOCCOCC(=O)N[C@H](CCC(N)=O)C(=O)N[C@@H](CCCNC(=N)N)C(=O)N1CCC[C@H]1C(=O)N[C@@H](CCC(=O)O)C(=O)N[C@@H](CC1CCCCC1)C(=O)N[C@@H](CO)C(=O)N[C@@H](Cc1c[nH]cn1)C(=O)N[C@@H](CCCCN)C(=O)NCC(=O)N1[C@H](C(=O)N[C@@H](CCCC)C(=O)NC(C)(C)C(=O)N[C@@H](Cc2ccc(Cl)cc2)C(=O)O)C[C@@H]2CCCC[C@@H]21)C(=O)O [compound 526] ({Tridecanoyl-γGlu-AEEA-AEEA}-[dQ]RPE[Cha]SHKG[Oic][Nle][Aib][Phe(4-Cl)]-OH),–,5%,< 1%,> 90%,EC50 ([6]; Table 16): 2.02 nM
CCCC[C@H](NC(=O)[C@@H]1C[C@@H]2CCCC[C@@H]2N1C(=O)CNC(=O)[C@H](CCCCN)NC(=O)[C@H](Cc1c[nH]cn1)NC(=O)[C@H](CO)NC(=O)[C@H](CC1CCCCC1)NC(=O)[C@H](CCCNC(=N)N)N(C)C(=O)[C@@H]1CCCN1C(=O)[C@H](CCCCNC(=N)N)NC(=O)[C@H](CCC(N)=O)NC(C)=O)C(=O)N1CCC[C@H]1C(=O)N[C@@H](Cc1ccc(Cl)cc1)C(=O)O [compound 61] (Ac-Q[hArg]P[NMeR][Cha]SHKG[Oic][Nle]P[Phe(4-Cl)]-OH),–,< 1%,7.58%,27.9%,EC50 [2]: 0.189 nM; EC50 ([6]; human APJ receptor): 0.159 nM
